Data as given in ChEMBL document CHEMBL1671810, “Identification of a novel scaffold for allosteric inhibition of wild type and drug resistant HIV-1 reverse transcriptase by fragment library screening” (J Med Chem, 2011).
Calls of active or inactive are those of the source. The rule behind the calls is not given here.

Columns and labels:
[1] = Binding affinity to wild type HIV1 BH10 isolate reverse transcriptase expressed in Escherichia coli BL21(DE3); set-up: species or system Human immunodeficiency virus type 1 BH10
[2] = molecular target: T1, Human immunodeficiency virus type 1 reverse transcriptase (Human immunodeficiency virus 1, UniProt Q72547, K103N); test: Binding affinity to HIV1 BH10 isolate reverse transcriptase K103N mutant expressed in Escherichia coli BL21(DE3); set-up: species or system Human immunodeficiency virus type 1 BH10
[3] = molecular target: T2, Human immunodeficiency virus type 1 reverse transcriptase (Human immunodeficiency virus 1, UniProt Q72547, Y181C); test: Binding affinity to HIV1 BH10 isolate reverse transcriptase Y181C mutant expressed in Escherichia coli BL21(DE3); set-up: species or system Human immunodeficiency virus type 1 BH10
[4] = molecular target: T3, Human immunodeficiency virus type 1 reverse transcriptase (Human immunodeficiency virus 1, UniProt Q72547, L100I); test: Binding affinity to HIV1 BH10 isolate reverse transcriptase L100I mutant expressed in Escherichia coli BL21(DE3); set-up: species or system Human immunodeficiency virus type 1 BH10
[5] = Inhibition of wild type HIV1 BH10 isolate reverse transcriptase catalytic activity expressed in Escherichia coli BL21(DE3) by UV-vis spectrophotometry; set-up: species or system Human immunodeficiency virus type 1 BH10
[6] = molecular target: T1, Human immunodeficiency virus type 1 reverse transcriptase; test: Inhibition of HIV1 BH10 isolate reverse transcriptase K103N mutant catalytic activity expressed in Escherichia coli BL21(DE3) by UV-vis spectrophotometry; set-up: species or system Human immunodeficiency virus type 1 BH10
[7] = molecular target: T2, Human immunodeficiency virus type 1 reverse transcriptase; test: Inhibition of HIV1 BH10 isolate reverse transcriptase Y181C mutant catalytic activity expressed in Escherichia coli BL21(DE3) by UV-vis spectrophotometry; set-up: species or system Human immunodeficiency virus type 1 BH10
[8] = molecular target: T3, Human immunodeficiency virus type 1 reverse transcriptase; test: Inhibition of HIV1 BH10 isolate reverse transcriptase L100I mutant catalytic activity expressed in Escherichia coli BL21(DE3) by UV-vis spectrophotometry; set-up: species or system Human immunodeficiency virus type 1 BH10
[9] = system: Human immunodeficiency virus type 1 BH10; test: Displacement of nevirapine from wild type HIV1 BH10 isolate reverse transcriptase expressed in Escherichia coli BL21(DE3) by competition assay

With `O=C1CCc2c(Br)cccc21` the Kd [1] was 270 µM, the Kd [2] was 20 µM and the Kd [3] was 40 µM. The Kd [4] was 40 µM, the IC50 [5] was 4 µM and the IC50 [6] was 16 µM. It also gave an IC50 [7] of 16 µM and an IC50 [8] of 25 µM.
In the case of `COC(=O)C1=C(C)NC(=S)NC1C` (stereo not given), the Kd [1] is reported as 380 µM, the Kd [3] is reported as 700 µM and the IC50 [5] is reported as 570 µM.
For `C=CCNc1scnc1S(=O)(=O)c1ccccc1`, the Kd [1] was 210 µM, the Kd [2] was 700 µM and the Kd [3] was 200 µM. It also gave a Kd [4] of 90 µM and an IC50 [5] of 5 µM.
For `O=C1c2ccccc2CCc2ncccc21`, the Kd [1] was 180 µM, the Kd [2] was 50 µM and the Kd [3] was 300 µM. It also gave a Kd [4] of 200 µM and an IC50 [5] of 430 µM.
`O=C(c1ccncc1)c1ccc(Cl)cc1` gave a Kd [1] of over 500 µM, a Kd [2] of 600 µM and a Kd [3] of 700 µM. For the same molecule, the Kd [4] was 60 µM and the IC50 [5] was 96 µM.
In the case of `Cc1ccc(O)cc1`, the Activity [9] is reported as “inactive”.
In the case of `Cc1cc2c(cc1[N+](=O)[O-])OCO2`, the Kd [1] is reported as 79 µM, the Kd [2] is reported as 20 µM and the Kd [3] is reported as 100 µM. For the same molecule, the Kd [4] was 40 µM and the IC50 [5] was 150 µM.
`CCCCCCCCNC(=O)NCc1ccc(O)c(CO)c1` gave a Kd [1] of 190 µM.
Molecule `CC(C)N1CCC(CCc2c[nH]cn2)CC1` has a Kd [1] of 88 µM.
With `Nc1cccc(-c2ccccc2)n1` the Activity [9] was “inactive”.
Molecule `C/C(=N\O)c1ccc2c(c1)CCC2` has a Kd [1] of 300 µM, a Kd [2] of 50 µM and a Kd [3] of 50 µM. It also gave a Kd [4] of 200 µM and an IC50 [5] of 39 µM.
